In ChEMBL document CHEMBL3797102, “Drug trapping in hERG K+ channels: (not) a matter of drug size?” (Medchemcomm, 2016):

What was measured:
Type in all cases: cell-based
[1] = molecular target: T1, Voltage-gated inwardly rectifying potassium channel KCNH2 (Homo sapiens, UniProt Q12809); test: Inhibition of wild type human ERG channel expressed in Xenopus laevis oocytes assessed as use dependent steady state block of induced K+ current at 150 uM preincubated for 330 secs followed by pulse train at 1 Hz at holding potential -100 mV by two-electrode voltage clamp method
[2] = molecular target: hERG (KCNH2) F656A mutant (Homo sapiens, UniProt Q12809, F656A); test: Inhibition of human ERG channel F656A mutant expressed in Xenopus laevis oocytes assessed as use dependent suppression of tail current at 150 uM at -140 mV by two-electrode voltage clamp method
[3] = molecular target: T1, Voltage-gated inwardly rectifying potassium channel KCNH2; test: Inhibition of wild type human ERG channel expressed in Xenopus laevis oocytes assessed as recovery from channel block after resting period of 300 secs followed by single test pulse at -100 mV holding potential subsequently washed out at 0.3 Hz by two-electrode voltage clamp method; parameters: scale not given: the % may be the effect or the level left; conditions: 5 min
[4] = molecular target: T2, hERG (KCNH2), wild type (Homo sapiens, UniProt Q12809); test: Inhibition of wild type human ERG channel expressed in Xenopus laevis oocytes assessed as use dependent steady state block of +20 mV-induced K+ current at 150 uM preincubated for 330 secs followed by pulse train at 1 Hz by two-electrode voltage clamp method
[5] = molecular target: T1, Voltage-gated inwardly rectifying potassium channel KCNH2; test: Inhibition of wild type human ERG channel expressed in Xenopus laevis oocytes assessed as time taken for use dependent steady state block of K+ current at 150 uM preincubated for 330 secs followed by pulse train at 1 Hz at holding potential -100 mV by two-electrode voltage clamp method
[6] = molecular target: T2, hERG (KCNH2), wild type; test: Inhibition of wild type human ERG channel expressed in Xenopus laevis oocytes assessed as first current amplitude after resting period of 300 secs followed by single test pulse at -100 mV holding potential by two-electrode voltage clamp method; parameters: scale not given: the % may be the effect or the level left; conditions: read-out: Activity
[7] = molecular target: hERG (KCNH2) Y652A mutant (Homo sapiens, UniProt Q12809, Y652A); test: Inhibition of human ERG channel Y652A mutant expressed in Xenopus laevis oocytes assessed as use dependent suppression of K+ current at 150 uM at 1 Hz equilibrated for 5 mins by two-electrode voltage clamp method
Chain of hERG (KCNH2) Y652A mutant (Q12809 whole entry Y652A): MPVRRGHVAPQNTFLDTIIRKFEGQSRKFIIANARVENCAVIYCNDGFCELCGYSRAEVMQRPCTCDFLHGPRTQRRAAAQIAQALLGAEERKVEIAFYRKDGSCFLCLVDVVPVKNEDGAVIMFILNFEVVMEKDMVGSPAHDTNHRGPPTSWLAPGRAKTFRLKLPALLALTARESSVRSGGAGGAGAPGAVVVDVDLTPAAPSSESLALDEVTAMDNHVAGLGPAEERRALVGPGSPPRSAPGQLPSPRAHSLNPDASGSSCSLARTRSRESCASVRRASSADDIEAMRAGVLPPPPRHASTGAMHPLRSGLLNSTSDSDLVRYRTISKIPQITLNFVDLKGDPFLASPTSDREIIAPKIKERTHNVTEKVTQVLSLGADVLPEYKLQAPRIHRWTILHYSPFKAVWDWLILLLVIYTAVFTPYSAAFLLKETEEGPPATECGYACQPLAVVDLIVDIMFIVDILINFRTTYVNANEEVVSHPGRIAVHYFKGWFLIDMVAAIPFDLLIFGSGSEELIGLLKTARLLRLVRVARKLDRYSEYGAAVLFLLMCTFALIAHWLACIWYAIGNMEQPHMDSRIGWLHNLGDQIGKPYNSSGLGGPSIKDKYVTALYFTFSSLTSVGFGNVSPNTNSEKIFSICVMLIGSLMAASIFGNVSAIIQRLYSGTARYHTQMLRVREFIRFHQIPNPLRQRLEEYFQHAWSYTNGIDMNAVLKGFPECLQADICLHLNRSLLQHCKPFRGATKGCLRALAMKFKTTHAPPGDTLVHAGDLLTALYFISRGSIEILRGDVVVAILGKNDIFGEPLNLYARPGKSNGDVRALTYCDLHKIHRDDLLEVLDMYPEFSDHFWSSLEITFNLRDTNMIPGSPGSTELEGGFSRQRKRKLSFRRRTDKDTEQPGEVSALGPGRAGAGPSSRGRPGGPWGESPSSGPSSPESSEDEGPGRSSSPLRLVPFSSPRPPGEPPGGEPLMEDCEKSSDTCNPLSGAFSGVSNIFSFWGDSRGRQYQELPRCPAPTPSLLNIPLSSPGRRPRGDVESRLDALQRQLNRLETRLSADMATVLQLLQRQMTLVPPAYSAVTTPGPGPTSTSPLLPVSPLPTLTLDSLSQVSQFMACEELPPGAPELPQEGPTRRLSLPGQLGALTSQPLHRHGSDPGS

T1 sequence (Q12809 whole entry): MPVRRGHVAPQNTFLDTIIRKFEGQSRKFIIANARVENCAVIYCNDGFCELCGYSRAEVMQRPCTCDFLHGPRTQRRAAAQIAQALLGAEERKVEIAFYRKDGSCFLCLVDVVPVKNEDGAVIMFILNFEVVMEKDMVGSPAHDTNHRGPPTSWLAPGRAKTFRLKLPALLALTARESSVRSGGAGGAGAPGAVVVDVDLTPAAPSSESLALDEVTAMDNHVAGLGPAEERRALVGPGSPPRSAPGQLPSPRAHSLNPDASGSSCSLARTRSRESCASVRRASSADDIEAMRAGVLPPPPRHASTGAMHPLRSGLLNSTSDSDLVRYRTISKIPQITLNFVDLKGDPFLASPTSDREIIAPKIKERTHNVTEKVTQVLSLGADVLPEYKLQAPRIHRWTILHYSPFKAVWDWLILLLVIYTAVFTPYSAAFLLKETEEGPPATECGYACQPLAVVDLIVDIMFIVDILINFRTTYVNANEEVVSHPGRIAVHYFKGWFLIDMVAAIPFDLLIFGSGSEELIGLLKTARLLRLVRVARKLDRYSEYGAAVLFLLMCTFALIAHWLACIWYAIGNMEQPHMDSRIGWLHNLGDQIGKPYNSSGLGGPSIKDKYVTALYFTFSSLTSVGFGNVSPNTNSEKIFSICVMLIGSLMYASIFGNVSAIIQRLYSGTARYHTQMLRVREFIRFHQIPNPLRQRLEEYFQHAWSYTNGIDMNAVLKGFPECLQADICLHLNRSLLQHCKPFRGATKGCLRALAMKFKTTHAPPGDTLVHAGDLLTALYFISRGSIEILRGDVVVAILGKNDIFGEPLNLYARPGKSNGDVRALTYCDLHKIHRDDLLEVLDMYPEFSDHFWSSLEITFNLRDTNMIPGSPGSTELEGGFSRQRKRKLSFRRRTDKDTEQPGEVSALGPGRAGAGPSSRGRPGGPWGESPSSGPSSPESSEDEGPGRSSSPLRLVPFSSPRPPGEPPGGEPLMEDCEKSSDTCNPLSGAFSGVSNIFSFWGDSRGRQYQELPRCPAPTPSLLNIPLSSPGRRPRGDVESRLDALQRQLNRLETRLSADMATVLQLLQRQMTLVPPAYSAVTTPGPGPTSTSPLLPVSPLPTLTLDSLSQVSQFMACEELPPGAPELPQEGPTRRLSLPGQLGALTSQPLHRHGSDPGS
T2 sequence (Q12809 whole entry): as above
Chain of hERG (KCNH2) F656A mutant (Q12809 whole entry F656A): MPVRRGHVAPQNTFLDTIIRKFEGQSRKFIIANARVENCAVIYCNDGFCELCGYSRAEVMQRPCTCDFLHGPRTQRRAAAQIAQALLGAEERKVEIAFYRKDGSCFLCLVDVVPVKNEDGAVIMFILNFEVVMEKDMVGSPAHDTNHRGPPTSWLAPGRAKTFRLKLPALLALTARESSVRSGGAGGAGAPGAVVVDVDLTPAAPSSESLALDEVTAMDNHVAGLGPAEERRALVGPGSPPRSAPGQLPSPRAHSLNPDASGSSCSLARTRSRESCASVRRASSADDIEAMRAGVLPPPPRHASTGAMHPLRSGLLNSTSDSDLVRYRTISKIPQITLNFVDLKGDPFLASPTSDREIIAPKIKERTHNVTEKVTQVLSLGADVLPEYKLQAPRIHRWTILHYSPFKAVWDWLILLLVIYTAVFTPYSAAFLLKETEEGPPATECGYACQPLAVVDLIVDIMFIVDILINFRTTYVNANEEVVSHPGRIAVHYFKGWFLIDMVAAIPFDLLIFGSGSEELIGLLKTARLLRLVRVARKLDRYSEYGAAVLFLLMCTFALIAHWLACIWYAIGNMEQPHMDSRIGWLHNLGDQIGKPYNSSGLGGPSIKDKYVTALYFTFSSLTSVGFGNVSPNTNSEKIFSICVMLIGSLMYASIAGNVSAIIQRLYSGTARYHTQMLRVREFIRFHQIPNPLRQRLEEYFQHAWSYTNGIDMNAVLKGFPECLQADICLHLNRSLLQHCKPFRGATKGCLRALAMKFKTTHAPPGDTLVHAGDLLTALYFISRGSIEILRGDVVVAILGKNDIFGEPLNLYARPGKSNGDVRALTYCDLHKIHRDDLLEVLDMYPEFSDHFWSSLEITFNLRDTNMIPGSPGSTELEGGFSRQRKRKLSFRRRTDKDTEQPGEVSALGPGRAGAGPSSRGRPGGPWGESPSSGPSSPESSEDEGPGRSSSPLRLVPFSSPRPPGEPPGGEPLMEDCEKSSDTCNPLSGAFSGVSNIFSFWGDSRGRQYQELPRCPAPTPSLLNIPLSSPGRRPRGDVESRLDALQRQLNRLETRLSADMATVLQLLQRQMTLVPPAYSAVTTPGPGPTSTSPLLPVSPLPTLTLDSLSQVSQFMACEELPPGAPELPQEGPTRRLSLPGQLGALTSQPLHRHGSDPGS

O=C(CCc1ccccc1)c1ccccc1OCC(O)CN1CCN(C(c2ccccc2)(c2ccccc2)c2ccccc2)CC1 (configuration not stated)
inhibition (INH) [1]: Active
inhibition at 150 µM [2]: 18.3%
Activity [3]: 47.5%
inhibition at 330 s, 150 µM [4]: 69%
Time [5]: 15 s
activity at 5 min [6]: < 1%
inhibition at 5 min, 150 µM [7]: 13.2%
